According to the pKa sets of Baltruschat and Czodrowski (2020):
Where a SMILES comes first, the peptide text is derived from it.

Conditions: acidic group
`O=C1CC(=O)NC(=S)[N-]1` gave a pKa of 10.7. For `Cc1nc(N)cc(O)[nH+]1`, the pKa was 1.7. With `O=S(=O)(Nc1ncc(Cl)cn1)c1ccc(O)cc1` the pKa was 5.59. In the case of `Fc1cccc(NC(=S)c2ccccc2)c1`, the pKa is reported as 10.3. `Cc1cccc(C(=O)O)c1O` gave a pKa of 3.02. `CCCCOc1cccc(C(=O)O)c1` showed a pKa of 4.25. For `Cn1ccnc1CS`, the pKa was 8.88. `CC(C)/C=C/C(=O)O` gave a pKa of 4.7. With `Cn1cnc2c(N=O)c(O)ccc21` the pKa was 6.76. Work on `Cc1ccc(SCC(=O)O)cc1` yielded a pKa of 3.57. Molecule `CS(=O)(=O)c1ccc(NS(=O)(=O)C(F)(F)F)cc1` has a pKa of 2.84. Molecule `O=C([O-])CNC(=O)CNS(=O)(=O)c1ccccc1` has a pKa of 9.65. Molecule `O=C(O)[C@H]1[C@@H]2C=C[C@H]1CC2` has a pKa of 4.58. Molecule `Sc1ccc(Cl)c(Cl)c1` has a pKa of 5.48. In the case of `O=C1C=C(O)C(=O)c2ccccc21`, the pKa is reported as 3.19. Work on `Cc1cccc(Cl)c1C(=O)O` yielded a pKa of 2.59. `CCCc1c(C)[nH][n+](C)c1[O-]` showed a pKa of 10.5. For `C/C(=N\O)C(=O)CO`, the pKa was 9.16. Work on `O=C1CC(Sc2ccc([N+](=O)[O-])cc2)N1` (stereo unspecified) yielded a pKa of 13. `O=C(CC(=O)c1ccc([N+](=O)[O-])cc1)Nc1ccccc1` showed a pKa of 8.7. Work on `Cn1cnc2cc(O)ccc21` yielded a pKa of 9.85. `Nc1nccc2c1[nH+]cn2CCOCP(=O)(O)O` showed a pKa of 1.23. Molecule `O=C(O)c1ccc([N+](=O)[O-])cc1Cl` has a pKa of 1.96. In the case of `CCC(C)(C)C(=O)O`, the pKa is reported as 5.03. Work on `COCCSC(C)O` (stereo unspecified) yielded a pKa of 14.2. With `Fc1cc(F)c(F)c(S)c1F` the pKa was 2.75. Work on `Nc1nccc2c1[nH+]cn2CCOCP(=O)([O-])O` yielded a pKa of 6.56. `COCC1=C(C(=O)O)CCC1` showed a pKa of 4.5. For `Cn1c(-c2ccccc2O)[nH+]c2ccccc21`, the pKa was 5.76. For `O=C(c1ccccc1)c1cc[nH]n1`, the pKa was 12. Molecule `O=C(O)[C@@H]1CCCN1C(=O)[C@@H]1CCC[NH2+]1` has a pKa of 3.16. For `O=c1ccc2ccccc2cc1O`, the pKa was 10. With `C[C@H]([NH3+])C(=O)N[C@@H](Cc1c[nH]c[nH+]1)C(=O)O` the pKa was 2.73. `C[NH+]1C[C@@H](C(=O)O)C[C@@]2(O)c3cccc4[nH]cc(c34)C[C@@H]12` showed a pKa of 3.38. `S=C(S)NC1CCCCC1` showed a pKa of 2.95. Work on `[O-]/N=C1\CCCC\C1=N/O` yielded a pKa of 12.6. For `O=C(O)CSc1ccc(S)cc1`, the pKa was 3.77. In the case of `COc1ccc2c3c([nH]c2c1)C(C)=NCC3`, the pKa is reported as 15.3. In the case of `O=[N+]([O-])c1cccc(O)c1O`, the pKa is reported as 6.64. `O=C(O)[C@H]1O[C@@H]1C(=O)O` showed a pKa of 1.92. Molecule `O=[N+]([O-])c1cccc2c[n+](CCCO)ccc12` has a pKa of 10.4. `O=C(O)CC1CCCCC1` showed a pKa of 4.8. Molecule `CN(C)Cc1cc(CC(C)(C)C)ccc1O` has a pKa of 11.5. For `COc1cc(C=O)ccc1O`, the pKa was 7.38. `C[C@@H]1CCC[C@H](C(=O)O)C1` gave a pKa of 4.88. With `O=C1NC(=O)C2CCC12` (stereo unspecified) the pKa was 9.63. For `O=C(O)CP`, the pKa was 4.07. In the case of `Cc1ccc(C(=O)C(=O)O)cc1`, the pKa is reported as 1.52. `[NH3+][C@@H](Cc1[nH+]c[nH]c1I)C(=O)O` gave a pKa of 1.65. Work on `N#CCC#N` yielded a pKa of 11.2. `O=C(O)c1cc[n+](O)cc1` showed a pKa of -0.48. `O=C(O)c1ccc(-c2nnn[nH]2)cc1` gave a pKa of 3.63. For `CC(=O)NS(=O)(=O)c1ccsc1C(=O)O`, the pKa was 3.1. For `CCOC(=O)Nc1ncnc2nc[nH]c12`, the pKa was 9.63. With `NC(=O)Nc1[nH]cnc1C(=O)[O-]` the pKa was 12.2. `CCO[C@H]1C[C@H]1C(=O)O` showed a pKa of 4.83. In the case of `Nc1ncc([N+](=O)[O-])cn1`, the pKa is reported as 14.7. In the case of `O=C(CC(=O)c1ccccc1)Nc1ccccc1[N+](=O)[O-]`, the pKa is reported as 9.54. For `O=C(O)[C@@H]1O[C@H](Oc2ccc3[nH+]c(O)ccc3c2)[C@@H](O)[C@H](O)[C@H]1O`, the pKa was 3.07. Molecule `C[NH+](C)Cc1cc(F)cc(C[NH+](C)C)c1O` has a pKa of 5.77. For `CC(C)(O)C(=O)O`, the pKa was 4.04. Work on `O=C1OC2C3CC4C2C4(C(=O)O)C13Br` (stereo unspecified) yielded a pKa of 3.5. In the case of `O=C(/C=N/O)/C=N/O`, the pKa is reported as 7.65.

Same assay, conditions: basic group
`CC(C)NC[Si](C)(C)C` gave a pKa of 10.8. Work on `[O-]c1ncccn1` yielded a pKa of 9.17. In the case of `NNCCc1ccccc1`, the pKa is reported as 7.25. With `CCOCCNc1cccc(OC)c1` the pKa was 3.67. With `c1c[nH]c(Cc2[nH]cc[nH+]2)n1` the pKa was 4.9. With `CC(=O)Nc1cccc2nc3ccccc3cc12` the pKa was 4.4. `NCCCCl` gave a pKa of 9.89. Work on `Cn1ccnc1CS` yielded a pKa of 6.31. `Cn1cnc2c(N=O)c(O)ccc21` showed a pKa of 3.31. `O=C([O-])C1CSCN1` (stereo unspecified) showed a pKa of 6.23. Work on `CN(C)c1ccccc1` yielded a pKa of 5.1. For `CC(C)(N)C(C)(C)[NH3+]`, the pKa was 6.56. For `CC(N)CCc1ccc(O)cc1` (stereo unspecified), the pKa was 9.14. Molecule `O=C(O[C@@H]1C[C@H]2CC[C@@H](C1)N2)[C@H](CO)c1ccccc1` has a pKa of 10.3. `CN(C)c1ccc([NH+](C)C)cc1` showed a pKa of 2.5. For `CSc1ccc(N)cc1[N+](=O)[O-]`, the pKa was 2.47. `C[n+]1nc(-c2ccccc2)ccc1NCCN1CCOCC1` gave a pKa of 5.31. In the case of `C#CCCCCCCN`, the pKa is reported as 10.7. Work on `O=C(CCN1CCOCC1)C(c1ccccc1)c1ccccc1` yielded a pKa of 6.39. For `NC(=O)/C=C(\O)c1cccnc1`, the pKa was 8.01. Work on `NCC1CCCCC1` yielded a pKa of 10.5. For `Cn1cnc2cc(O)ccc21`, the pKa was 6.1. `COCc1nc2c(n1C)C(=O)c1ncnc([O-])c1C2=O` showed a pKa of 6.17. With `CNc1ccnc([S-])n1` the pKa was 11.1. Work on `Nc1ccc(S(=O)(=O)Nc2cnccn2)cc1` yielded a pKa of 1.77. Work on `Cc1ccn(-c2cccc[nH+]2)n1` yielded a pKa of -3.9. Molecule `Nc1nccc2c1[nH+]cn2CCOCP(=O)(O)O` has a pKa of 0.15. `CN1CCCCCCN(C)CCCCCC1` showed a pKa of 9.24. Work on `Cc1cc(-c2cccc[nH+]2)nn1C` yielded a pKa of -1.6. Work on `CCCCCCCCCCNCCC(=O)[O-]` yielded a pKa of 10.6. With `CC(C)c1nc2ccccc2[nH]1` the pKa was 6.23. Molecule `NCC(=O)NCC(=O)NCC(=O)N1CCC[C@H]1C(=O)[O-]` (H-GGGP-OH) has a pKa of 8.04. Work on `Cc1cc(O)cc(O)c1C(=N)c1ccccc1` yielded a pKa of 6.75. In the case of `NC(Cc1ccccc1)C(=O)[O-]` (stereo unspecified), the pKa is reported as 9.17. For `CCCc1ccccn1`, the pKa was 5.97. With `C[n+]1ccc([O-])nc1[O-]` the pKa was 9.73. `N[C@@H]1CCCC[C@@H]1O` showed a pKa of 9.72. Molecule `COC(=O)c1nc2cc(Cl)ccc2[nH]1` has a pKa of 0.3. `CC(C)CC(N)C(=O)[O-]` (stereo unspecified) gave a pKa of 9.76. With `N=C(N)N` the pKa was 13.1. Work on `C=CCNCCCCCCCCCCC(=O)[O-]` yielded a pKa of 9.3. `ClCC1CN2CCC1CC2` (stereo unspecified) gave a pKa of 10.2. `COc1ccc2c3c([nH]c2c1)C(C)=NCC3` showed a pKa of 9.72. Molecule `CN(C)CCCC(=O)Oc1ccc([N+](=O)[O-])cc1` has a pKa of 9.6. Molecule `C=CCN(C)CCOC(=O)C(=C)C` has a pKa of 7.39. For `C1CCN(CC[NH+]2CCCC2)C1`, the pKa was 6.3. `CC[NH+](CC)CCNc1cc(C)nc(Nc2ccc(Cl)cc2)n1` showed a pKa of 6.65. Molecule `Cc1cnc2c(ccc3c(C)c(C)cnc32)c1C` has a pKa of 6.31. In the case of `c1ccc(-c2cccc[nH+]2)nc1`, the pKa is reported as 1.47. With `COC(=O)c1cccnc1` the pKa was 3.23. Molecule `Nc1ccc(Br)cc1` has a pKa of 3.79. Molecule `C#CC(C)(C)NC(C)(C)C#C` has a pKa of 6.45. `Cc1c(C(C)C)c(=O)n(-c2ccccc2)n1C` showed a pKa of 2.4. `CCN1CCCC1C` (stereo unspecified) showed a pKa of 10.6. In the case of `N/N=C/c1ncnc2nc[nH]c12`, the pKa is reported as 9.2. Work on `CC(=O)NC(Cc1c[nH]cn1)C(=O)[O-]` (stereo unspecified) yielded a pKa of 7.11. Work on `Cn1ccc(N)n1` yielded a pKa of 3.81. With `CCOC(=O)Nc1ncnc2nc[nH]c12` the pKa was 2.4. Work on `NC(=O)Nc1[nH]cnc1C(=O)[O-]` yielded a pKa of 4.9. In the case of `CCCSC(=O)CCCc1c[nH]cn1`, the pKa is reported as 7.55. For `CSS/C(CCO)=C(/C)N(C=O)Cc1cnc(C)nc1N`, the pKa was 5.59. In the case of `Cc1cccc(C)c1N(C)C`, the pKa is reported as 5.85. `C[NH+](C)CCCCNc1ccnc2cccc([N+](=O)[O-])c12` gave a pKa of 6.71.
